This is an account of results in patent US20260070899A1, “N-(2-(4-CYANOTHIAZOLIDIN-3-YL)-2-OXOETHYL)-QUINOLINE-4-CARBOXAMIDES” (AstraZeneca AB, priority 2022, published 2026).

The structures appear in SMILES notation.

In assay [1] the target is T1, FAP enzyme activity in mouse plasma (Mus musculus, UniProt P97321).
T1 construct: tissue Charles River; host or cells: plasma of male C57Bl/6 mice after oral dosing
T1 sequence (P97321 24-761 limits assumed): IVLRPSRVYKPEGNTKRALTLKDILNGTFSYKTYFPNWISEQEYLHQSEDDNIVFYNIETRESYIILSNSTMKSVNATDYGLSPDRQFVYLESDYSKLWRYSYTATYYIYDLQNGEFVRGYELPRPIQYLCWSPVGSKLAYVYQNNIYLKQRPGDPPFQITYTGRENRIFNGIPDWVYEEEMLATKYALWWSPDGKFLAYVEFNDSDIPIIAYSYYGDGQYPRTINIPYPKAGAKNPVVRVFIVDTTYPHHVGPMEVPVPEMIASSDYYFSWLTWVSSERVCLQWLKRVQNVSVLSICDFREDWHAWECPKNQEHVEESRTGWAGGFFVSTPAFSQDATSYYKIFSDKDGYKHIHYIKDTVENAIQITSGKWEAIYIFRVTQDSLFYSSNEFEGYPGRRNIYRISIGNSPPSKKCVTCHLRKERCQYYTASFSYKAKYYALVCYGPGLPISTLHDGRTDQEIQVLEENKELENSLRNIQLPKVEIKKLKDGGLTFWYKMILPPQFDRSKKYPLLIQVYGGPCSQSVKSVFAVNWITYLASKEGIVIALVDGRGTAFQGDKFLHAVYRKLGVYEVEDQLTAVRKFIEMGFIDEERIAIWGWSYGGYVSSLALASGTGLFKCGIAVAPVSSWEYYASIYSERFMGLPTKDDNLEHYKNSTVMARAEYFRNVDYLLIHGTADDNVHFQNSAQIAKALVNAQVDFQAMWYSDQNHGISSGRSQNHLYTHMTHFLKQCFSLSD
The experiment in a line: FAP target engagement enzyme activity in mouse plasma (in vivo). The following applies: male C57Bl/6 mice, single oral dose 3 or 10 mg/kg; exposure vs plasma FAP activity, Imax fixed to 1. The method, then: The effect of test compound on FAP enzyme activity in mouse plasma was evaluated in an enzymatic assay using the Fibroblast Activation Protein alpha (FAP) specific fluorogenic substrate dipeptide-Coumarin, Ala-Pro-AMC, (ARI-3144). In this assay, FAP cleaves Ala-Pro-AMC to release free AMC which is measured as a fluorescent signal that correlates with enzyme activity.
Male C57Bl/6 mice (Charles River, Germany), 8 weeks of age, were single housed in a temperature-controlled room with a 12-hour light/dark cycle (06:00-18:00 light). The mice had ad libitum access to water and rodent chow diet (R70, Lactamin, Kimstad, Sweden), and were acclimated for 5 days upon arrival. After acclimation, all mice received a single oral dose of test compound (3 or 10 mg/kg). Blood samples for whole blood compound exposure measurements were taken at 0.25, 0.5, 1, 2, 4, 8 and 24 h post oral dosing. Samples were collected in EDTA capillary tubes (20 μL, K2E, REF 19.447) and were transferred to a 96-deep well plate (NUNC, Thermo Discher Scientific) and stored at −20° C. until further analyses were performed. […]
Recombinant human FAP (PB-17-1837, construct PL-17-0278, cd33-FAP (27-757)-6His, Mw85926 Da) was used as a standard for this assay. […] The plates were read on a Beckman Paradigm reader with excitation 360 nm and emission 465 nm. Fluorescence measurements were performed with kinetic read every 5 minutes for 60 min at rt. Data were analyzed in Excel (IDBS XLfit Add-In) using a Linear Regression (y=k*x+m) model to prepare a human recombinant FAP standard curve.
On the day of the assay, plasma was diluted (1:2) to 20 μL volume in buffer (PBS, 0.1% BSA) and 7.5 μL was transferred to the assay plate (384-well black, fluotrack PS, Greiner 781076). […] The plates were read on a Beckman Paradigm reader with excitation 360 nm and emission 465 nm. Fluorescence measurements were performed with kinetic read every 5 minutes for 60 minutes at rt. As noted above, FAP cleaves Ala-Pro-AMC to release free AMC which is measured as a fluorescent signal. […]

The target in assay [2] is T2, human dipeptidylpeptidase 7 (hDPP7) (Homo sapiens, UniProt Q9UHL4).
T2 construct: purchased BPS Bioscience 80070
The experiment in a line: hDPP7 inhibition assay. Format: biochemical. Particulars: hDPP7 15 nM, Ala-Pro-amino-methylcoumarin 5 μM; n = 1. The procedure: Compounds were tested in a biochemical inhibition assay using human dipeptidylpeptidase 7 (hDPP7) enzyme at 15 nM FAC (BPS Bioscience, #80070) and the substrate Ala-Pro-amino-methylcoumarin (BPS Bioscience, #80305) at 5 μM FAC. The enzymatic reactions were conducted in duplicate at rt for 30 min in 50 μL DPP assay buffer (BPS Bioscience, #80300). Compound solutions (in DMSO) at 10 CR, 3 fold dilution series were prepared in assay buffer ten-fold higher than the final concentration, and 5 μL of the dilution was added to a 50 μL reaction so that the highest compound concentration was 100 μM FAC and the concentration of DMSO was 1% in all wells. The plates were read on a Tecan Infinite M1000 microplate reader with excitation 340 nm and emission 460 nm. Data were analyzed in Graph Pad Prism. […] Raw data signals were normalized using 1% DMSO as 0% control and no enzyme as 100% inhibitor control.

The IC50 is the midpoint of a concentration-inhibition curve. Read a low IC50 as greater potency.

As for `CO[C@H]1CC[C@H](c2ccc3nccc(C(=O)NCC(=O)N4CSC[C@H]4C#N)c3c2)CC1` (single isomer, unassigned) [Example 78, N-(2-((R)-4-Cyanothiazolidin-3-yl)-2-oxoethyl)-6-((1r,4R*)-4-methoxycyclohexyl)quinoline-4-carboxamide], in assay [1], half-maximal inhibition (IC50) required 2.6 nM.
In assay [1], `N#C[C@@H]1CSCN1C(=O)CNC(=O)c1ccnc2ccc(C3CCOCC3)cc12` [Example 20, (R)—N-(2-(4-Cyanothiazolidin-3-yl)-2-oxoethyl)-6-(tetrahydro-2H-pyran-4-yl)quinoline-4-carboxamide] displayed an IC50 of 8.8 nM.
For the compound `CC(C)(F)COc1ccc2nccc(C(=O)NCC(=O)N3CSC[C@H]3C#N)c2c1` [Example 3, (R)—N-(2-(4-Cyanothiazolidin-3-yl)-2-oxoethyl)-6-(2-fluoro-2-methylpropoxy)quinoline-4-carboxamide], the IC50 in assay [2] was greater than 100000 nM; in assay [1] it was 7.6 nM.
